Among the data in the supplement of paper PMC10307832 are relative viability values, retold here.

Common to all, as to assay: relative viability (nuclei count vs DMSO), 5 days (fraction); higher = more cells survive
Compound in the assay “Ibrutinib + Bortezomib”: C=CC(=O)N1CCC[C@@H](n2nc(-c3ccc(Oc4ccccc4)cc3)c3c(N)ncnc32)C1 [Ibrutinib] + CC(C)C[C@H](NC(=O)[C@H](Cc1ccccc1)NC(=O)c1cnccn1)B(O)O [Bortezomib] (partner 0.002 µM)
In short, it runs like this:
(§1)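 Relative viability divides the nuclei count in treated wells by that in vehicle wells. Lung cancer cell lines were seeded in 1536-well plates, dosed by pin tool the next day, and fixed and stained after 5 days in one step with final 0.05% Triton X-100, 1% formaldehyde and 1 ug/ml Hoechst. Dosing was a single drug or a fixed anchor-drug dose plus five library-drug doses (not always all listed) in √10 steps, and values are medians of duplicate plates imaged at 4×.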

Compound in the assay “Ibrutinib + Dasatinib”: C=CC(=O)N1CCC[C@@H](n2nc(-c3ccc(Oc4ccccc4)cc3)c3c(N)ncnc32)C1 [Ibrutinib] + Cc1nc(Nc2ncc(C(=O)Nc3c(C)cccc3Cl)s2)cc(N2CCN(CCO)CC2)n1 [Dasatinib] (partner 0.075 µM)
In short, it runs like this: as §1

Compound in the assay “BMX-IN-1 + Palbociclib”: C=CC(=O)Nc1cc(-n2c(=O)ccc3cnc4ccc(-c5ccc(NS(C)(=O)=O)cc5)cc4c32)ccc1C [BMX-IN-1] + CC(=O)c1c(C)c2cnc(Nc3ccc(N4CCNCC4)cn3)nc2n(C2CCCC2)c1=O [Palbociclib] (partner 0.5 µM)
Summed up: as §1

Compound in the assay “BMX-IN-1 + Navitoclax”: C=CC(=O)Nc1cc(-n2c(=O)ccc3cnc4ccc(-c5ccc(NS(C)(=O)=O)cc5)cc4c32)ccc1C [BMX-IN-1] + CC1(C)CCC(c2ccc(Cl)cc2)=C(CN2CCN(c3ccc(C(=O)NS(=O)(=O)c4ccc(N[C@H](CCN5CCOCC5)CSc5ccccc5)c(S(=O)(=O)C(F)(F)F)c4)cc3)CC2)C1 [Navitoclax] (partner 0.5 µM)
In short, it runs like this: as §1

Take NCI-H2405: the relative viability with Ibrutinib + Bortezomib (first compound 0.005 µM) is 1.07; with Ibrutinib + Bortezomib (first compound 0.01581 µM), 0.977; in the assay with Ibrutinib + Bortezomib (first compound 0.05 µM), 0.948; in the assay with Ibrutinib + Bortezomib (first compound 0.1581 µM), 0.856; in the assay with Ibrutinib + Bortezomib (first compound 0.5 µM), 0.767; with Ibrutinib + Dasatinib (first compound 0.005 µM) it was 0.232. Besides, the relative viability in the assay with Ibrutinib + Dasatinib (first compound 0.01581 µM) turned out to be 0.19; with Ibrutinib + Dasatinib (first compound 0.05 µM), 0.189; with Ibrutinib + Dasatinib (first compound 0.1581 µM) it was 0.206; in the assay with Ibrutinib + Dasatinib (first compound 0.5 µM), 0.237; with BMX-IN-1 + Palbociclib (first compound 0.02 µM), 0.574; with BMX-IN-1 + Palbociclib (first compound 0.2 µM), 0.585. For the same cell line, the relative viability with BMX-IN-1 + Palbociclib (first compound 0.6325 µM) came out at 0.584; in the assay with BMX-IN-1 + Palbociclib (first compound 2 µM), 0.542; with BMX-IN-1 + Navitoclax (first compound 0.02 µM), 0.957; in the assay with BMX-IN-1 + Navitoclax (first compound 0.2 µM), 0.846; in the assay with BMX-IN-1 + Navitoclax (first compound 0.6325 µM) it was 0.915; with BMX-IN-1 + Navitoclax (first compound 2 µM), 0.836.
Regarding NCI-H3122, the relative viability with Ibrutinib + Bortezomib (first compound 0.005 µM) worked out at 1.07; with Ibrutinib + Bortezomib (first compound 0.01581 µM), 1.05; with Ibrutinib + Bortezomib (first compound 0.05 µM), 1.08; with Ibrutinib + Bortezomib (first compound 0.1581 µM), 0.955; with Ibrutinib + Bortezomib (first compound 0.5 µM) it was 1.02; with Ibrutinib + Dasatinib (first compound 0.005 µM) it was 0.816. Also, the relative viability amounted to 0.841 in the assay with Ibrutinib + Dasatinib (first compound 0.01581 µM); 0.699 with Ibrutinib + Dasatinib (first compound 0.05 µM); 0.676 with Ibrutinib + Dasatinib (first compound 0.1581 µM); 0.771 in the assay with Ibrutinib + Dasatinib (first compound 0.5 µM); 0.193 with BMX-IN-1 + Palbociclib (first compound 0.02 µM); 0.204 in the assay with BMX-IN-1 + Palbociclib (first compound 0.2 µM). The relative viability was found to be 0.174 with BMX-IN-1 + Palbociclib (first compound 0.6325 µM); 0.164 with BMX-IN-1 + Palbociclib (first compound 2 µM); 1.1 in the assay with BMX-IN-1 + Navitoclax (first compound 0.02 µM); 1.06 in the assay with BMX-IN-1 + Navitoclax (first compound 0.2 µM); 1.02 with BMX-IN-1 + Navitoclax (first compound 0.6325 µM); 1.05 with BMX-IN-1 + Navitoclax (first compound 2 µM).
In the case of PC-3 [JPC-3], the relative viability is 0.837 with Ibrutinib + Bortezomib (first compound 0.005 µM); 0.805 in the assay with Ibrutinib + Bortezomib (first compound 0.01581 µM); 0.831 with Ibrutinib + Bortezomib (first compound 0.05 µM); 0.826 in the assay with Ibrutinib + Bortezomib (first compound 0.1581 µM); 0.635 with Ibrutinib + Bortezomib (first compound 0.5 µM); 0.865 with Ibrutinib + Dasatinib (first compound 0.005 µM). Also, the relative viability with Ibrutinib + Dasatinib (first compound 0.01581 µM) turned out to be 0.862; with Ibrutinib + Dasatinib (first compound 0.05 µM), 0.774; in the assay with Ibrutinib + Dasatinib (first compound 0.1581 µM), 0.979; with Ibrutinib + Dasatinib (first compound 0.5 µM), 0.327; with BMX-IN-1 + Palbociclib (first compound 0.02 µM) it was 0.544; in the assay with BMX-IN-1 + Palbociclib (first compound 0.2 µM) it was 0.598. In addition, the relative viability in the assay with BMX-IN-1 + Palbociclib (first compound 0.6325 µM) came to 0.546; with BMX-IN-1 + Palbociclib (first compound 2 µM) it was 0.521; with BMX-IN-1 + Navitoclax (first compound 0.02 µM), 0.728; with BMX-IN-1 + Navitoclax (first compound 0.2 µM), 0.823; with BMX-IN-1 + Navitoclax (first compound 0.6325 µM), 0.746; in the assay with BMX-IN-1 + Navitoclax (first compound 2 µM), 0.871.
With PC-14, the relative viability with Ibrutinib + Bortezomib (first compound 0.005 µM) is 0.891; with Ibrutinib + Bortezomib (first compound 0.01581 µM), 0.878; in the assay with Ibrutinib + Bortezomib (first compound 0.05 µM), 0.835; with Ibrutinib + Bortezomib (first compound 0.1581 µM), 0.819; with Ibrutinib + Bortezomib (first compound 0.5 µM) it was 0.744; with Ibrutinib + Dasatinib (first compound 0.01581 µM) it was 0.228. Further, the relative viability with Ibrutinib + Dasatinib (first compound 0.05 µM) is 0.209; with Ibrutinib + Dasatinib (first compound 0.1581 µM), 0.312; with Ibrutinib + Dasatinib (first compound 0.5 µM), 0.0569; in the assay with BMX-IN-1 + Palbociclib (first compound 0.02 µM), 0.583; in the assay with BMX-IN-1 + Palbociclib (first compound 0.2 µM) it was 0.478; in the assay with BMX-IN-1 + Palbociclib (first compound 0.6325 µM) it was 0.58. Further, the relative viability was 0.47 with BMX-IN-1 + Palbociclib (first compound 2 µM); 1.02 with BMX-IN-1 + Navitoclax (first compound 0.02 µM); 1.29 in the assay with BMX-IN-1 + Navitoclax (first compound 0.2 µM); 1.01 with BMX-IN-1 + Navitoclax (first compound 0.6325 µM); 1.06 with BMX-IN-1 + Navitoclax (first compound 2 µM).
As to RERF-LC-KJ, the relative viability with Ibrutinib + Bortezomib (first compound 0.005 µM) came out at 0.96; in the assay with Ibrutinib + Bortezomib (first compound 0.01581 µM), 0.977; with Ibrutinib + Bortezomib (first compound 0.05 µM) it was 1.03; with Ibrutinib + Bortezomib (first compound 0.1581 µM), 1; with Ibrutinib + Bortezomib (first compound 0.5 µM), 0.851; in the assay with Ibrutinib + Dasatinib (first compound 0.005 µM), 0.936. Also, the relative viability in the assay with Ibrutinib + Dasatinib (first compound 0.01581 µM) worked out at 0.637; with Ibrutinib + Dasatinib (first compound 0.05 µM), 0.757; in the assay with Ibrutinib + Dasatinib (first compound 0.1581 µM), 0.85; with Ibrutinib + Dasatinib (first compound 0.5 µM), 0.88; with BMX-IN-1 + Palbociclib (first compound 0.02 µM), 1.15; in the assay with BMX-IN-1 + Palbociclib (first compound 0.2 µM), 1.11. Further, the relative viability worked out at 1.18 with BMX-IN-1 + Palbociclib (first compound 0.6325 µM); 1.16 with BMX-IN-1 + Palbociclib (first compound 2 µM); 0.821 in the assay with BMX-IN-1 + Navitoclax (first compound 0.02 µM); 0.994 in the assay with BMX-IN-1 + Navitoclax (first compound 0.2 µM); 1.3 in the assay with BMX-IN-1 + Navitoclax (first compound 0.6325 µM); 0.749 with BMX-IN-1 + Navitoclax (first compound 2 µM).
Turning to SK-LU-1, the relative viability with Ibrutinib + Bortezomib (first compound 0.01581 µM) came out at 1.11; in the assay with Ibrutinib + Bortezomib (first compound 0.05 µM), 0.897; in the assay with Ibrutinib + Bortezomib (first compound 0.1581 µM) it was 1.14; with Ibrutinib + Bortezomib (first compound 0.5 µM) it was 1.23; with Ibrutinib + Dasatinib (first compound 0.005 µM) it was 0.179; with Ibrutinib + Dasatinib (first compound 0.01581 µM), 0.162. In addition, the relative viability was determined as 0.17 in the assay with Ibrutinib + Dasatinib (first compound 0.05 µM); 0.183 with Ibrutinib + Dasatinib (first compound 0.1581 µM); 0.162 with Ibrutinib + Dasatinib (first compound 0.5 µM); 0.323 with BMX-IN-1 + Palbociclib (first compound 0.02 µM); 0.399 with BMX-IN-1 + Palbociclib (first compound 0.2 µM); 0.385 with BMX-IN-1 + Palbociclib (first compound 0.6325 µM). In addition, the relative viability with BMX-IN-1 + Palbociclib (first compound 2 µM) was determined as 0.335; with BMX-IN-1 + Navitoclax (first compound 0.02 µM) it was 1; with BMX-IN-1 + Navitoclax (first compound 0.2 µM), 0.69; with BMX-IN-1 + Navitoclax (first compound 0.6325 µM), 0.789; with BMX-IN-1 + Navitoclax (first compound 2 µM), 1.02.
For the cell line SW 1573, the relative viability with Ibrutinib + Bortezomib (first compound 0.005 µM) is 0.771; with Ibrutinib + Bortezomib (first compound 0.01581 µM), 0.97; with Ibrutinib + Bortezomib (first compound 0.05 µM), 0.8; with Ibrutinib + Bortezomib (first compound 0.1581 µM) it was 0.992; with Ibrutinib + Bortezomib (first compound 0.5 µM), 0.984; with Ibrutinib + Dasatinib (first compound 0.005 µM), 0.647. For the same cell line, the relative viability was found to be 0.494 with Ibrutinib + Dasatinib (first compound 0.01581 µM); 0.477 with Ibrutinib + Dasatinib (first compound 0.05 µM); 0.588 with Ibrutinib + Dasatinib (first compound 0.1581 µM); 0.514 with Ibrutinib + Dasatinib (first compound 0.5 µM); 0.411 with BMX-IN-1 + Palbociclib (first compound 0.02 µM); 0.413 in the assay with BMX-IN-1 + Palbociclib (first compound 0.2 µM). The relative viability with BMX-IN-1 + Palbociclib (first compound 0.6325 µM) amounted to 0.391; with BMX-IN-1 + Palbociclib (first compound 2 µM) it was 0.334; with BMX-IN-1 + Navitoclax (first compound 0.02 µM), 1.22; with BMX-IN-1 + Navitoclax (first compound 0.2 µM), 1.39; with BMX-IN-1 + Navitoclax (first compound 0.6325 µM), 1.21; with BMX-IN-1 + Navitoclax (first compound 2 µM) it was 0.808.
Take UMC-11: the relative viability in the assay with Ibrutinib + Bortezomib (first compound 0.005 µM) amounted to 0.664; with Ibrutinib + Bortezomib (first compound 0.01581 µM), 0.637; with Ibrutinib + Bortezomib (first compound 0.05 µM) it was 0.898; with Ibrutinib + Bortezomib (first compound 0.1581 µM), 0.654; with Ibrutinib + Bortezomib (first compound 0.5 µM) it was 0.736; with Ibrutinib + Dasatinib (first compound 0.005 µM) it was 0.417. Besides, the relative viability came to 0.411 with Ibrutinib + Dasatinib (first compound 0.01581 µM); 0.485 in the assay with Ibrutinib + Dasatinib (first compound 0.05 µM); 0.548 with Ibrutinib + Dasatinib (first compound 0.1581 µM); 0.486 with Ibrutinib + Dasatinib (first compound 0.5 µM); 0.345 with BMX-IN-1 + Palbociclib (first compound 0.02 µM); 0.336 with BMX-IN-1 + Palbociclib (first compound 0.2 µM). Besides, the relative viability came to 0.341 in the assay with BMX-IN-1 + Palbociclib (first compound 0.6325 µM); 0.318 with BMX-IN-1 + Palbociclib (first compound 2 µM); 0.285 with BMX-IN-1 + Navitoclax (first compound 0.02 µM); 0.327 with BMX-IN-1 + Navitoclax (first compound 0.2 µM); 0.283 with BMX-IN-1 + Navitoclax (first compound 0.6325 µM); 0.294 with BMX-IN-1 + Navitoclax (first compound 2 µM).
